From patent US7259161B2, “Compositions useful as inhibitors of JAK and other protein kinases” (Vertex Pharmaceuticals Incorporated, priority 2002, dated 2007)

What follows are molecules tested against T1, JAK3 (Homo sapiens, UniProt P52333) (assay: JAK3 inhibition assay). Settings: 2 μM ATP, ELISA read at 450 nm.
T1 sequence (P52333 1-1124): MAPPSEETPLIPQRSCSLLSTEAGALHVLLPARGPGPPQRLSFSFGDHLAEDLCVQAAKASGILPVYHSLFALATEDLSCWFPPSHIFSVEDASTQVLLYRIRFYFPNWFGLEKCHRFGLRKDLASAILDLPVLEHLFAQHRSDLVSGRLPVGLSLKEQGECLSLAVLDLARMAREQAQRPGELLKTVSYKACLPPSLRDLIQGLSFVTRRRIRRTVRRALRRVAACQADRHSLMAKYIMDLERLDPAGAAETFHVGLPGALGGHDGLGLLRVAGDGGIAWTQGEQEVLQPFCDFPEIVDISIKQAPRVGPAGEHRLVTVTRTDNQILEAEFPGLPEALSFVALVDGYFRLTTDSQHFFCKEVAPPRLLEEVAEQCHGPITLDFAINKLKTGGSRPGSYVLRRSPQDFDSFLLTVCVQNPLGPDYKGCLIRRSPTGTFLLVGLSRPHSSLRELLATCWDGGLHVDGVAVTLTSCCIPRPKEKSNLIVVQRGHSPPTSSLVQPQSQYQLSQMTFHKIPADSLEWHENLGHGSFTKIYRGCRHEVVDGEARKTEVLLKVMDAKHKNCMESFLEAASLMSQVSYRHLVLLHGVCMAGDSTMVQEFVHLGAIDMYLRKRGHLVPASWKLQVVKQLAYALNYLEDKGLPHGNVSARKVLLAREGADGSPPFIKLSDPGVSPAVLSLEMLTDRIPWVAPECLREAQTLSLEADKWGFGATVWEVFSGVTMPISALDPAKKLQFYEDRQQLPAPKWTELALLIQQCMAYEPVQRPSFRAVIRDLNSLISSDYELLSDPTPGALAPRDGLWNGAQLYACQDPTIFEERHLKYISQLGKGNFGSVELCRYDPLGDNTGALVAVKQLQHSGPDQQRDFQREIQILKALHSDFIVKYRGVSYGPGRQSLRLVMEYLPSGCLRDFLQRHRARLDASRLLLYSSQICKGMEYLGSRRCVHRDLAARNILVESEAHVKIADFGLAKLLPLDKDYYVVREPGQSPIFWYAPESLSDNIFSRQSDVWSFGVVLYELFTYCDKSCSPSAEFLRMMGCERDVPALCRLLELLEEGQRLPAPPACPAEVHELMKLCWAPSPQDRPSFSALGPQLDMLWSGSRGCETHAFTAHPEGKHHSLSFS
Assay type: biochemical
Description: Compounds were screened for their ability to inhibit JAK3 according to the method described by G. R. Brown, et al, Bioorg. Med. Chem. Lett. 2000, vol. 10, pp 575–579 in the following manner. Into Maxisorb plates, previously coated at 4° C. with Poly (Glu, Ala, Tyr) 6:3:1 then washed with phosphate buffered saline 0.05% and Tween (PBST), was added 2 μM ATP, 5 MM MgCl2, and a solution of compound in DMSO. The reaction was started with JAK enzyme and the plates incubated for 60 minutes at 30° C. The plates were then washed with PBST, 100 μL HRP-Conjugated 4G10 antibody was added, and the plate incubated for 90 minutes at 30° C. The plate was again washed with PBST, 100 μL TMB solution is added, and the plates were incubated for another 30 minutes at 30° C. Sulfuric acid (100 μL of 1M) was added to stop the reaction and the plate is read at 450 nm to obtain the optical densities for analysis to determine Ki values.

| Ki [µM] | SMILES |
| --- | --- |
| < 5 | NS(=O)(=O)c1cccc(Nc2nccc(-c3ccc4c(c3)N(Cc3ccncc3)C(=O)CO4)n2)c1 [IVa-70] |
| < 1 | Cc1cccc(Nc2nccc(-c3ccc4c(c3)N(C)C(=O)CO4)n2)c1 [IVa-3] |
| < 1 | CN1C(=O)COc2ccc(-c3ccnc(Nc4cccc(C(N)=O)c4)n3)cc21 [IVa-25] |
| < 1 | O=C1COc2ccc(-c3ccnc(Nc4cccc(O)c4)n3)cc2N1Cc1cccnc1 [IVa-44] |
| < 1 | NS(=O)(=O)c1ccc(Nc2nccc(-c3ccc4c(c3)N(Cc3ccncc3)C(=O)CO4)n2)cc1 [IVa-71] |
| < 1 | Cc1ccccc1Nc1nccc(-c2ccc3c(c2)NC(=O)CO3)n1 [IVa-15] |
| < 5 | O=C1COc2ccc(-c3ccnc(Nc4cccc(F)c4)n3)cc2N1 [IVa-10] |
| < 5 | O=C1COc2ccc(-c3ccnc(Nc4cccc(F)c4)n3)cc2N1Cc1ccccn1 [IVa-55] |
| < 1 | CN1C(=O)COc2ccc(-c3ccnc(Nc4cccc(S(N)(=O)=O)c4)n3)cc21 [IVa-22] |
| < 5 | O=C1COc2ccc(-c3ccnc(Nc4cccc(Cl)c4)n3)cc2N1Cc1ccccn1 [IVa-56] |
| < 5 | O=C1COc2ccc(-c3ccnc(Nc4cccc(O)c4)n3)cc2N1CCN1CCOCC1 [IVa-32] |
| < 5 | NS(=O)(=O)c1cccc(Nc2nccc(-c3ccc4c(c3)N(Cc3cccnc3)C(=O)CO4)n2)c1 [IVa-50] |
| < 5 | O=C1COc2ccc(-c3ccnc(Nc4cccc(Cl)c4)n3)cc2N1Cc1ccncc1 [IVa-66] |
| < 5 | COC(=O)c1cccc(Nc2nccc(-c3ccc4c(c3)N(Cc3cccnc3)C(=O)CO4)n2)c1 [IVa-46] |
| < 5 | O=C1COc2ccc(-c3ccnc(Nc4ccc(F)cc4)n3)cc2N1 [IVa-11] |
| < 1 | NC(=O)c1cccc(Nc2nccc(-c3ccc4c(c3)N(Cc3cccnc3)C(=O)CO4)n2)c1 [IVa-53] |
| < 1 | COc1cccc(Nc2nccc(-c3ccc4c(c3)N(C)C(=O)CO4)n2)c1 [IVa-28] |
| < 1 | CN1C(=O)COc2ccc(-c3ccnc(Nc4ccccc4)n3)cc21 [IVa-1] |
| < 5 | NS(=O)(=O)c1ccc(Nc2nccc(-c3ccc4c(c3)N(CCN3CCOCC3)C(=O)CO4)n2)cc1 [IVa-39] |
| < 5 | O=C1COc2ccc(-c3ccnc(Nc4cccc(Cl)c4)n3)cc2N1CCN1CCOCC1 [IVa-31] |
| < 5 | Cc1cc(C)cc(Nc2nccc(-c3ccc4c(c3)N(Cc3cccnc3)C(=O)CO4)n2)c1 [IVa-52] |
| < 5 | O=C1COc2ccc(-c3ccnc(Nc4cccc(Oc5ccccc5)c4)n3)cc2N1Cc1ccccn1 [IVa-60] |
| < 5 | O=C1COc2ccc(-c3ccnc(Nc4ccccc4)n3)cc2N1Cc1cccnc1 [IVa-41] |

| Ki [µM] | SMILES |
| --- | --- |
| < 5 | N#Cc1cccc(Nc2nccc(-c3ccc4c(c3)N(Cc3cccnc3)C(=O)CO4)n2)c1 [IVa-47] |
| < 1 | NS(=O)(=O)c1cccc(Nc2nccc(-c3ccc4c(c3)NC(=O)CO4)n2)c1 [IVa-21] |
| < 5 | CN1C(=O)COc2ccc(-c3ccnc(Nc4cccc(C#N)c4)n3)cc21 [IVa-26] |
| < 5 | O=C1COc2ccc(-c3ccnc(Nc4ccccc4)n3)cc2N1CCN1CCOCC1 [IVa-29] |
| < 5 | O=C1COc2ccc(-c3ccnc(Nc4cccc(-c5ccccc5)c4)n3)cc2N1Cc1ccccn1 [IVa-59] |
| < 5 | COc1ccc(Nc2nccc(-c3ccc4c(c3)N(C)C(=O)CO4)n2)cc1 [IVa-5] |
| < 5 | O=C1COc2ccc(-c3ccnc(Nc4cccc(F)c4)n3)cc2N1CCN1CCOCC1 [IVa-30] |
| < 5 | Cc1cc(C)cc(Nc2nccc(-c3ccc4c(c3)N(Cc3ccncc3)C(=O)CO4)n2)c1 [IVa-72] |
| < 5 | O=C1COc2ccc(-c3ccnc(Nc4ccc(Cl)cc4)n3)cc2N1 [IVa-13] |
| < 5 | COC(=O)c1cccc(Nc2nccc(-c3ccc4c(c3)N(Cc3ccccn3)C(=O)CO4)n2)c1 [IVa-58] |
| < 5 | O=C1COc2ccc(-c3ccnc(Nc4cccc(-c5ccccc5)c4)n3)cc2N1Cc1cccnc1 [IVa-48] |
| < 5 | O=C1COc2ccc(-c3ccnc(Nc4cccc(Cl)c4)n3)cc2N1Cc1cccnc1 [IVa-43] |
| < 1 | COc1cccc(Nc2nccc(-c3ccc4c(c3)N(Cc3ccccn3)C(=O)CO4)n2)c1 [IVa-57] |
| < 1 | NS(=O)(=O)c1ccc(Nc2nccc(-c3ccc4c(c3)N(Cc3cccnc3)C(=O)CO4)n2)cc1 [IVa-51] |
| < 1 | Cc1cc(C)cc(Nc2nccc(-c3ccc4c(c3)N(C)C(=O)CO4)n2)c1 [IVa-6] |
| < 1 | CN1C(=O)COc2ccc(-c3ccnc(Nc4cccc(O)c4)n3)cc21 [IVa-27] |
| < 5 | Cc1ccc(Nc2nccc(-c3ccc4c(c3)N(C)C(=O)CO4)n2)cc1 [IVa-4] |
| < 5 | COc1cccc(Nc2nccc(-c3ccc4c(c3)N(CCN3CCOCC3)C(=O)CO4)n2)c1 [IVa-36] |
| < 1 | COc1cc(Nc2nccc(-c3ccc4c(c3)N(C)C(=O)CO4)n2)cc(OC)c1 [IVa-7] |
| < 5 | COc1cccc(Nc2nccc(-c3ccc4c(c3)N(Cc3cccnc3)C(=O)CO4)n2)c1 [IVa-45] |
| < 5 | CN1C(=O)COc2ccc(-c3ccnc(Nc4cccc(F)c4)n3)cc21 [IVa-2] |
| < 1 | COc1cccc(Nc2nccc(-c3ccc4c(c3)NC(=O)CO4)n2)c1 [IVa-14] |

Each molecule was assayed against CDK-2/Cyclin A (Homo sapiens, UniProt P24941) (assay: CDK2 inhibition assay (coupled enzyme assay)). Settings: 100 μM ATP, 25 nM CDK-2/Cyclin A.
Assay type: biochemical
Description: Compounds were screened for their ability to inhibit CDK-2/Cyclin A using a standard coupled enzyme assay (Fox et al (1998) Protein Sci 7, 2249). Reactions were carried out in 100 mM HEPES pH 7.5, 10 mM MgCl2, 25 mM NaCl, 1 mM DTT and 1.5% DMSO. Final substrate concentrations in the assay were 100 μM ATP (Sigma chemicals) and 100 μM peptide (American Peptide, Sunnyvale, Calif.). Assays were carried out at 30° C. and 25 nM CDK-2/Cyclin A. Final concentrations of the components of the coupled enzyme system were 2.5 mM phosphoenolpyruvate, 350 μM NADH, 30 μg/ml pyruvate kinase and 10 μg/ml lactate dehydrogenase.
An assay stock buffer solution was prepared containing all of the reagents listed above, with the exception of CDK-2/Cyclin A, DTT and the test compound of interest. 56 μl of the test reaction was placed in a 384 well plate followed by addition of 1 μl of 2 mM DMSO stock containing the test compound (final compound concentration 30 μM). The plate was preincubated for ˜10 minutes at 30° C. and the reaction initiated by addition of 10 μl of enzyme (final concentration 25 nM). Rates of reaction were obtained using a BioRad Ultramark plate reader (Hercules, Calif.) over a 5 minute read time at 30° C. Compounds showing >50% inhibition versus standard wells containing DMSO, but no compound, were titrated and IC50's determined using a similar protocol.

| Ki [nM] | SMILES |
| --- | --- |
| < 1000 | CN1C(=O)COc2ccc(-c3ccnc(Nc4cccc(S(N)(=O)=O)c4)n3)cc21 [IVa-22] |

These molecules were tested against JNK3 (Homo sapiens, UniProt P53779) (assay: JNK3 inhibition assay (spectrophotometric coupled-enzyme assay)). Settings: 10 μM ATP, 10 nM activated JNK3.
Chain of JNK3 (P53779 whole entry, species assumed): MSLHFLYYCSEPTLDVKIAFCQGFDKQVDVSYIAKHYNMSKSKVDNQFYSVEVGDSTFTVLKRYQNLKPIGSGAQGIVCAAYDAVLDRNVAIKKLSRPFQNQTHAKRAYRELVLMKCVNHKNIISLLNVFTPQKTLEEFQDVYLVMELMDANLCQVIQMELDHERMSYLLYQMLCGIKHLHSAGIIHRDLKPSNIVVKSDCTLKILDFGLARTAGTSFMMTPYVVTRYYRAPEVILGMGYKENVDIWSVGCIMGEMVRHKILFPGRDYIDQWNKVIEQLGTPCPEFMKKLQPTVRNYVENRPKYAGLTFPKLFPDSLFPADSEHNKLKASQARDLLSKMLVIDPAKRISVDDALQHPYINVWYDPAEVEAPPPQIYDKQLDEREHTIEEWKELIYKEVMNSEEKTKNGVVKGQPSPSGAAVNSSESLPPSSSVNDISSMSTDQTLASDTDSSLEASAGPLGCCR
Assay type: biochemical
Description: Compounds were assayed for the inhibition of JNK3 by a spectrophotometric coupled-enzyme assay. In this assay, a fixed concentration of activated JNK3 (10 nM) was incubated with various concentrations of a potential inhibitor dissolved in DMSO for 10 minutes at 30° C. in a buffer containing 0.1 M HEPES buffer, pH 7.5, containing 10 mM MgCl2, 2.5 mM phosphoenolpyruvate, 200 μM NADH, 150 μg/mL pyruvate kinase, 50 μg/mL lactate dehydrogenase, and 200 μM EGF receptor peptide. The EGF receptor peptide is a phosphoryl acceptor in the JNK3-catalyzed kinase reaction. The reaction was initiated by the addition of 10 μM ATP and the assay plate is inserted into the spectrophotometer's assay plate compartment that was maintained at 30° C. The decrease of absorbance at 340 nm was monitored as a function of time. The rate data as a function of inhibitor concentration was fitted to competitive inhibition kinetic model to determine the Ki.

| Ki [nM] | SMILES |
| --- | --- |
| < 1000 | Cc1cccc(Nc2nccc(-c3ccc4c(c3)N(C)C(=O)CO4)n2)c1 [IVa-3] |
| < 1000 | CN1C(=O)COc2ccc(-c3ccnc(Nc4cccc(S(N)(=O)=O)c4)n3)cc21 [IVa-22] |
| < 1000 | CN1C(=O)COc2ccc(-c3ccnc(Nc4ccccc4)n3)cc21 [IVa-1] |
| < 1000 | COc1ccc(Nc2nccc(-c3ccc4c(c3)N(C)C(=O)CO4)n2)cc1 [IVa-5] |
| < 1000 | Cc1ccc(Nc2nccc(-c3ccc4c(c3)N(C)C(=O)CO4)n2)cc1 [IVa-4] |
| < 1000 | CN1C(=O)COc2ccc(-c3ccnc(Nc4cccc(F)c4)n3)cc21 [IVa-2] |
